Experimental data taken from patent publication US10376520B2, “Methods for the treatment of cardiovascular disorders” (Galapagos NV, priority 2015, dated 2019).

Key:
[1] = test system: RA patients; experiment: CRP analysis (immunoturbidimetric assay), Study 2; type: in vivo, human; conditions: 50 mg q.d.
Description: Double-blind, placebo-controlled, monotherapy study in subjects with moderately to severely active RA who have an inadequate response to methotrexate (MTX) (oral or parenteral).
Twelve weeks of treatment with Compound 1 (dosed as a [Compound 1:HCl:3H2O]) at 50 mg, 100 mg, or 200 mg q.d.; or placebo. At Week 12, all subjects on placebo and the subjects on the 50 mg dose who have not achieved 20% improvement in swollen joint count (SJC66) and tender joint count (TJC68) will be assigned to 100 mg q.d. in a blinded fashion and will continue treatment until Week 24. Subjects in the other groups will maintain their randomized treatment until Week 24.
The determination of CRP is made using Immunoturbidimetric assay for the in vitro quantitative determination of CRP in human serum and plasma on Roche/Hitachi cobas c systems, wherein human CRP agglutinates with latex particles coated with monoclonal anti-CRP antibodies. The aggregates are determined turbidimetrically (Eda et al., 1998; Price et al., 1987).
Human serum and plasma samples [CRP] determination was done on a Roche/Hitachi Cobas c 301 c 501/502 system which automatically calculate the analyte concentration of each sample. Samples containing precipitates are centrifuged before performing the assay.
The Hommel-corrected p-value for the pairwise comparisons of each group with placebo is shown. […]

[2] = test system: RA patients; experiment: Triglycerides level (Selectra autoanalyzer), Study 4; type: in vivo, human; conditions: for Triglycerides level, 4 weeks CFB: 4 weeks change from baseline
Description: Randomized double-blind, placebo-controlled add on study in subjects with active RA who have an inadequate response to MTX monotherapy, in combination with methotrexate, administered for 4 weeks in the treatment of subjects with active rheumatoid arthritis who have an inadequate response to methotrexate alone.
Compound 1 (dosed as a [Compound 1:HCl:3H2O]) capsules administered orally in 30 mg, 75 mg, 150 mg, or 300 mg doses per day for 4 weeks.
Triglycerides, [HDL] cholesterol, and plasma cholesterol were measured on the Selectra autoanalyzer (Sopachem BV, 44-RI Straat 33, 4051 AP Ochten, The Netherlands). All assays were commercially available from DiaSys Diagnostic Systems GmbH, Alte Strasse 9, 65558 Holzheim, Germany.

O=C(Nc1nc2cccc(-c3ccc(CN4CCS(=O)(=O)CC4)cc3)n2n1)C1CC1 [Compound 1, cyclopropanecarboxylic acid {5-[4-(1,1-dioxo-thiomorpholin-4-ylmethyl)-phenyl]-[1,2,4]triazolo[1,5-a]pyridin-2yl}-amide]
CRP mean CFB (LOCF) ([1]; week 1): -3.70 mg/L
CRP mean CFB (LOCF) ([1]; week 12): -4.43 mg/L
Triglycerides level, 4 weeks CFB ([2]; 30 mg q.d.): 51.7%
Triglycerides level, Baseline ([2]; 30 mg q.d.): 1.2 mM
Triglycerides level, week 4 ([2]; 30 mg q.d.): 1.7 mM
Triglycerides level, 4 weeks CFB ([2]; 75 mg q.d.): 6.6%
Triglycerides level, Baseline ([2]; 75 mg q.d.): 1 mM
Triglycerides level, week 4 ([2]; 75 mg q.d.): 1.1 mM
Triglycerides level, 4 weeks CFB ([2]; 150 mg q.d.): 93.6%
Triglycerides level, Baseline ([2]; 150 mg q.d.): 1.4 mM
Triglycerides level, week 4 ([2]; 150 mg q.d.): 2.1 mM
Triglycerides level, 4 weeks CFB ([2]; 300 mg q.d.): 23.3%
Triglycerides level, Baseline ([2]; 300 mg q.d.): 1.3 mM
Triglycerides level, week 4 ([2]; 300 mg q.d.): 1.4 mM
